ChEMBL document CHEMBL4814003, “Novel dual-mode antitumor chlorin-based derivatives as potent photosensitizers and histone deacetylase inhibitors for photodynamic therapy and chemotherapy” (Eur J Med Chem, 2021)
Activity calls are given as the source filed them. The rule behind the calls is not given here.

Columns and labels:
HCT-116 [1] = assay: Phototoxicity in human HCT-116 cells assessed as reduction in cell viability irradiated 10 j/cm2 for 24 hrs followed by incubated for 24 hrs by CCK8 assay; type: functional, cell-based; conditions: HCT-116, light or radiation study
Histone deacetylase 1 [2] = molecular target: T1, Histone deacetylase 1 (Homo sapiens, UniProt Q13547); assay: Inhibition of human recombinant HDAC1 in human A 549 cells assessed as effect on acetyl-H3 expression upto 2 uM measured after 24 hrs by western blot analysis; type: cell-based; conditions: A549, dose microM <=2, time 24.0 hrs
[3] = Drug uptake in human A549 cells after 24 hrs by fluorescence spectrophotometer analysis relative to tala-porfin; type: ADME, cell-based; conditions: a549, 24 h
[4] = molecular target: T2, Polyamine deacetylase HDAC10 (Homo sapiens, UniProt Q969S8); assay: Inhibition of human recombinant HDAC10 using Ac-Leu-Gly-Lys(Ac)-AMC as substrate by measuring fluorescence intensity incubated for 30 mins by microplate reader assay
T2 sequence (Q969S8 whole entry): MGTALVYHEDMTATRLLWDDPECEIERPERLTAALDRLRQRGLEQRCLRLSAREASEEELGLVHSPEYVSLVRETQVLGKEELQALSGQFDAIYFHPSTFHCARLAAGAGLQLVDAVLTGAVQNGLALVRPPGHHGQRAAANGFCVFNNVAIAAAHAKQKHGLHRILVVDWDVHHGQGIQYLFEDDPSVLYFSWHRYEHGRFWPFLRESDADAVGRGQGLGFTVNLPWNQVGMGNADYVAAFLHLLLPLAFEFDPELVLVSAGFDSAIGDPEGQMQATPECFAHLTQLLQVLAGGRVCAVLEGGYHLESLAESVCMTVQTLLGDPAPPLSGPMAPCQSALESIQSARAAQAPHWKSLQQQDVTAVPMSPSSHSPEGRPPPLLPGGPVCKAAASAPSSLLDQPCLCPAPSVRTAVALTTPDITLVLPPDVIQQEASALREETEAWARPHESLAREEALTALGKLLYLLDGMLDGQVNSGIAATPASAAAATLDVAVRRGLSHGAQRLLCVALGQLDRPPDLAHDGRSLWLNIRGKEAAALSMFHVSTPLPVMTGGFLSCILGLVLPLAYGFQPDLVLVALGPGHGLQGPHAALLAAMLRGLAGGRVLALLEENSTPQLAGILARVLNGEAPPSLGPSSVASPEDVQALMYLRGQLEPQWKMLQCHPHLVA

A549 [5] = assay: Induction of apoptosis in human A549 cells assessed as apoptotic cells at 0.01 uM in presence of light irradiation incubated for 48 hrs by annexin V-FITC staining based flow cytometry; type: functional
Histone deacetylase 1 [6] = molecular target: T1, Histone deacetylase 1; assay: Inhibition of human recombinant HDAC1 using Ac-Leu-Gly-Lys(Ac)-AMC as substrate by measuring fluorescence intensity incubated for 30 mins by microplate reader assay
[7] = Drug uptake in human A549 cells assessed as compound localization in mitochondria at 0.1 uM measured after 24 hrs by Mitotracker Green FM based laser confocal microscopy; type: ADME; conditions: a549, 24 h
HCT-116 [8] = assay: Dark toxicity in human HCT-116 cells assessed as reduction in cell viability incubated under dark for 48 hrs measured after 48 hrs by CCK8 assay; type: functional, cell-based; conditions: HCT-116, 48 h
[9] = Drug uptake in human A549 cells assessed as compound localization in ER at 0.1 uM measured after 24 hrs by ERtracker Green dye based laser confocal microscopy; type: ADME, subcellular, Endoplasmic reticulum; conditions: a549, 24 h
Histone deacetylase 2 = Histone deacetylase 2 (Homo sapiens, UniProt Q92769); assay: Inhibition of human recombinant HDAC2 using Ac-Leu-Gly-Lys(Ac)-AMC as substrate by measuring fluorescence intensity incubated for 30 mins by microplate reader assay
A549 [10] = assay: Induction of apoptosis in human A549 cells assessed as necrotic cells at 0.5 uM in absence of light irradiation incubated for 48 hrs by annexin V-FITC staining based flow cytometry; type: functional
A549 [11] = assay: Induction of autophagy in human A549 cells irradiated 10 j/cm2 at 0.1 uM after 24 hrs using fluorescent molecule DAPRed; type: functional
A549 [12] = assay: Induction of reactive oxygen species generation in human A549 cells assessed as mean count value at 0.05 uM incubated for 24 hrs by DCFH-DA staining based fluorescence microscopy assay; type: functional
[13] = Drug uptake in human A549 cells assessed as compound localization in nucleus at 0.1 uM measured after 24 hrs by laser confocal microscopy; type: ADME, subcellular; conditions: a549, 24 h
A549 [14] = assay: Induction of apoptosis in human A549 cells assessed as apoptotic cells at 0.1 uM in presence of light irradiation incubated for 48 hrs by annexin V-FITC staining based flow cytometry; type: functional
A549 [15] = assay: Phototoxicity in human A549 cells assessed as reduction in cell viability irradiated 10 j/cm2 for 24 hrs followed by incubated for 24 hrs by CCK8 assay; type: functional, cell-based; conditions: A549, light or radiation study
A549 [16] = assay: Induction of reactive oxygen species generation in human A549 cells assessed as mean count value at 0.01 uM incubated for 24 hrs by DCFH-DA staining based fluorescence microscopy assay; type: functional
[17] = Drug uptake in human A549 cells assessed as compound localization in golgi at 0.1 uM measured after 24 hrs by Golgi tracker Green dye based laser confocal microscopy; type: ADME, subcellular, Golgi body; conditions: a549, 24 h
Histone deacetylase 8 = molecular target: T3, Histone deacetylase 8 (Homo sapiens, UniProt Q9BY41); assay: Inhibition of human recombinant HDAC8 using Ac-Leu-Gly-Lys(Ac)-AMC as substrate by measuring fluorescence intensity incubated for 30 mins by microplate reader assay
T3 sequence (Q9BY41 whole entry): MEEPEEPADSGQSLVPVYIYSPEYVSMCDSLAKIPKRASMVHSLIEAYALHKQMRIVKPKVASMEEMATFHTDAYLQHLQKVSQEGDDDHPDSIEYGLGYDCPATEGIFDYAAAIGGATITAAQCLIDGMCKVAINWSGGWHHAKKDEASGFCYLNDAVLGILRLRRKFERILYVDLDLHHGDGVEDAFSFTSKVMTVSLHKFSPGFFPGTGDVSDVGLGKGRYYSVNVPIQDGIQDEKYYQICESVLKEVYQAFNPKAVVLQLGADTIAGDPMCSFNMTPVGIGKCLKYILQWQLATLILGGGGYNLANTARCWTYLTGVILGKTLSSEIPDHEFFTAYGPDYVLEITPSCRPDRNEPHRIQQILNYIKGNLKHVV

T1 sequence (Q13547 whole entry): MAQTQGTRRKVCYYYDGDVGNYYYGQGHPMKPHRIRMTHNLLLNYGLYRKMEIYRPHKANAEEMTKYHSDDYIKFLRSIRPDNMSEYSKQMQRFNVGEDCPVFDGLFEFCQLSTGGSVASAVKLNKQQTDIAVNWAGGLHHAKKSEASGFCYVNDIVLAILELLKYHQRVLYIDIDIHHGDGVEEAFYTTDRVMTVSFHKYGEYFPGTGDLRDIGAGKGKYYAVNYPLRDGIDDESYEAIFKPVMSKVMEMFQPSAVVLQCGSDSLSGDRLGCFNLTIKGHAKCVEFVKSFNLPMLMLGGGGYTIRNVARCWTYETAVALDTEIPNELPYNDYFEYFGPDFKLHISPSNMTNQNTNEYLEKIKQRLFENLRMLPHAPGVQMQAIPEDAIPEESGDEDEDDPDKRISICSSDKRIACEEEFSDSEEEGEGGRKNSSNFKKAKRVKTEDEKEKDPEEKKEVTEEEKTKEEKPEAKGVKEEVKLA
Chain of Histone deacetylase 2 (Q92769 whole entry): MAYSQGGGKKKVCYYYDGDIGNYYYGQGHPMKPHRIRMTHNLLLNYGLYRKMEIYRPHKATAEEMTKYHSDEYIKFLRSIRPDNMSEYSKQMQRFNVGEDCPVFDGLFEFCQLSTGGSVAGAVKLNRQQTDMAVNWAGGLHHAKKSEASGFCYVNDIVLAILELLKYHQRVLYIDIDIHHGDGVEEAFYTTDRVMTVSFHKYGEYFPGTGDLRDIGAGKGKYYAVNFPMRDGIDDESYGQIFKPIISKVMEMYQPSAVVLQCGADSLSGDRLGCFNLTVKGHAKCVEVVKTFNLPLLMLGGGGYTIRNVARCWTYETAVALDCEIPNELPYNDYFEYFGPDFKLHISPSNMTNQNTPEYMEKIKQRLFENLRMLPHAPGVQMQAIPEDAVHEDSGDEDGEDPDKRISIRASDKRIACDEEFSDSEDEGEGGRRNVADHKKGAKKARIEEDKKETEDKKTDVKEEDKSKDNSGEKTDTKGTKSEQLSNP

- inhibition (Histone deacetylase 1 [2]): inactive
- fold change (FC) [3]: 9
- IC50 [4]: > 100000 nM
- IC50 (Histone deacetylase 1 [6]): 27000 nM
- Drug uptake [7]: Active
- Drug uptake [9]: Active
- IC50 (Histone deacetylase 2): 2650 nM
- Drug uptake [13]: Not Active
- Drug uptake [17]: Active
- IC50 (Histone deacetylase 8): > 100000 nM
Compound: C=Cc1c(C)c2cc3nc(c(C(=O)OC)c4[nH]c(cc5nc(cc1[nH]2)C(C)=C5CC)c(C)c4C(=O)OC)[C@@H](CCC(=O)Nc1ccc(C(=O)Nc2ccccc2N)cc1)[C@@H]3C
- IC50 (HCT-116 [1]): 6 nM
- Activity (A549 [5]): 27.32%
- IC50 (HCT-116 [8]): 2790 nM
- Activity (A549 [10]): 45.22%
- Activity (A549 [11]): Active
- Activity (A549 [12]): 1760.9
- Activity (A549 [14]): 90.77%
- IC50 (A549 [15]): 60 nM
- Activity (A549 [16]): 770.81
